{
  "source": "patent US10647680B2",
  "about": "“Urea compound, preparation method therefor and medical use thereof” (Ancureall Pharmaceutical (Shanghai) Co., Ltd., priority 2016, dated 2020)",
  "key": {"[1]": {"molecular_target": "T1, hERG potassium ion channel (Homo sapiens, UniProt Q12809)", "T1 construct": "host or cells: HEK-293", "T1 sequence (Q12809 whole entry)": "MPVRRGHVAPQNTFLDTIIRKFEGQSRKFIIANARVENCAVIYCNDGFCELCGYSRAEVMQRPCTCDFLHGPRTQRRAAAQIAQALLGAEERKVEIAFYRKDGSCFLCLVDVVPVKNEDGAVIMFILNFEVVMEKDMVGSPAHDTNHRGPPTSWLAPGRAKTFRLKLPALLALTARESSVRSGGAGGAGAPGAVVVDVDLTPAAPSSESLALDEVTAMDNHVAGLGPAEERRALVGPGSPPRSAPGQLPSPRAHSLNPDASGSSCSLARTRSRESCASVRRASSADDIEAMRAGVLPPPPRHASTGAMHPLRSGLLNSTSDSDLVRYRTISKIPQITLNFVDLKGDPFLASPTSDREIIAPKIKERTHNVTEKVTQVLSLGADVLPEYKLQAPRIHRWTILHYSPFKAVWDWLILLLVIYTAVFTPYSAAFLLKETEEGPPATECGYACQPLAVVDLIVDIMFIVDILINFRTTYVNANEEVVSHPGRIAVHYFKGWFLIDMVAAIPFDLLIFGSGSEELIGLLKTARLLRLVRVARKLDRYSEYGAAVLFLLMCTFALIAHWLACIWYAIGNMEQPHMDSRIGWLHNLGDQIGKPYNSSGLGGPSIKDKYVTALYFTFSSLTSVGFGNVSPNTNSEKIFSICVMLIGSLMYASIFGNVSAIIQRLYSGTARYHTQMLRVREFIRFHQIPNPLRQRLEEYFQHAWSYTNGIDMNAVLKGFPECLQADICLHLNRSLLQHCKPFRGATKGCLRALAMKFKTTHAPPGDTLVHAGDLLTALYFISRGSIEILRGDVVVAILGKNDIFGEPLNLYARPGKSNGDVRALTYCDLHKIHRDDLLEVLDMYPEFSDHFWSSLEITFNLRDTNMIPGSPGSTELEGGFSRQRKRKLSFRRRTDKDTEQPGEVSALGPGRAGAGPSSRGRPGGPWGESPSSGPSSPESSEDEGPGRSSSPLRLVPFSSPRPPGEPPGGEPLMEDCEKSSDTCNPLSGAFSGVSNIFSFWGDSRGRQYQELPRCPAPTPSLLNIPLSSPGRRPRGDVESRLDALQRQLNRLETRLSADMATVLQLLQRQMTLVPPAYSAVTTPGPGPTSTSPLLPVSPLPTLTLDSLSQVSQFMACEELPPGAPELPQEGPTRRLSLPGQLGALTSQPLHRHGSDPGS", "test": "hERG test (whole cell model)", "format": "cell-based", "conditions": "for Ratio (%): n=3", "experimental": "The whole cell model hERG test was performed with compound 77 of the present invention as a representative example, 30 uM Quinidine (Sigma) was used as a positive control.\nProcedure: hERG potassium ion channel HEK-293 cells (Krius Biology) were over-expressed, and cultured at a 37° C., 5% CO2 incubator. The culture medium was DMEM supplemented with 15% fetal bovine serum and 1% penicillin-streptomycin. The stably transfected cells were inoculated to slides, with a cell density of less than 50%, and cultured overnight. The experimental cells were transferred to an approximately 1 mL bath tank embedded in an inverted microscope platform (Diaphot, Nikon), and the extracellular fluid was perfused at a perfusion rate of 2.7 mL/min. The experiment could be started after stabilization for 5 minutes and precipitation of cells. Membrane current was recorded by HEKAEPC-10 patch clamp amplifier and […] acquisition system (HEKA Instruments Inc., D-67466 Lambrecht/Pfalz Germany). All experiments were completed at room temperature (22-24° C.). During the experiment, a P-97 microelectrode control apparatus (Sutter Instrument Company, One Digital Drive, Novato, Calif. 94949) was used to […] the electrodes (BF150-110-10). The inner diameter of the electrode was 1-1.5 mm, and the inlet resistance after filling with the liquid was 2-4 MQ. Electrophysiological stimulation of the hERG potassium channel: firstly, the membrane voltage was clamped at −80 mV, and cells were given continuous stimulation of 2 s, +20 mV voltage, to activate hERG potassium ion channel and repolarization to −50 mV for 5 s, to generate outward tail current. The stimulation frequency was once every 15 seconds. The current value was the peak value of tail current. By measuring the maximum current value of the treatment group and the control group, the ratio of the maximum current value of the treatment group to the maximum current value of the control group (Mean±SE) was calculated, to evaluate the effect of the test compounds on the hERG potassium ion channel under the test concentration. Statistics and analysis of experimental data were performed by Origin 8.5 (OriginLab Corporation, Northampton, Mass.)."}, "[2]": {"molecular_target": "T2, CYP2B6 (Homo sapiens, UniProt P20813)", "T2 construct": "human liver microsomes (BD Gentest) (0.5 mg/mL); tissue BD Gentest; host or cells: human liver microsomes", "T2 sequence (P20813 1-491)": "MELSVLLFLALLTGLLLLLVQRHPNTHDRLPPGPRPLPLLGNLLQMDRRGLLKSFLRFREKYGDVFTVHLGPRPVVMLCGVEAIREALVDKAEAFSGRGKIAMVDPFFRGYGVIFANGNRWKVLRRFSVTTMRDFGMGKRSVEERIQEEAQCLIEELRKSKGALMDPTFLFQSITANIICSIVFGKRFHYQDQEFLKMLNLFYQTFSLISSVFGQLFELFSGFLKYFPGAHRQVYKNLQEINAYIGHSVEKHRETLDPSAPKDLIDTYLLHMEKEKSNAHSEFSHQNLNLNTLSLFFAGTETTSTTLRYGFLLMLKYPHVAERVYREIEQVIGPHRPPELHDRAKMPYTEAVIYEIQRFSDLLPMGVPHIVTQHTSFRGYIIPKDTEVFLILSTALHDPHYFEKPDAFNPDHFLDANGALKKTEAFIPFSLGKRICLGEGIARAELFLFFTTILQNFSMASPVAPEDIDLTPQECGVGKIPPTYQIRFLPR", "test": "P450 enzyme inhibition, CYP2B6", "format": "in vitro ADME", "conditions": "human liver microsomes", "experimental": "(§1) Eight cytochrome p450 enzyme inhibition reactions of human liver microsomes were performed using compound 77 of the present invention as a representative example.\n(§2) The main reaction systems and processes: in 37° C. water bath, the test compounds (7 concentrations, 0, 0.25, 0.5, 5, 10, 25, and 50 uM; the final methanol concentration was 1% in the system), human liver microsomes (BD Gentest) (0.5 mg/mL) and reducing coenzyme II (Roche 10621706001) (1 mg/mL) and the corresponding cytochrome p450 enzyme probe substrate were co-incubated for 5 to 20 minutes. Among them, (1) the probe substrate for CYP1A2 was Phenacetin ([…]) (Sigma), and the selective inhibitor alpha-naphthoflavone (2 uM) (Sigma) was for parallel detection as positive control, and they were incubated for 20 minutes. (2) The probe substrate for CYP2b6 was Bupropion (40 uM) (Sigma) and the selective inhibitor Ticlopidine (10 uM) (Sigma) was for parallel detection as positive control, and they were incubated for 20 minutes. (3) The probe substrate of CYP2C8 was Amodiaquine (1 uM) (Sigma), and the selective inhibitor Montelukast (10 uM) (Sigma) was for parallel detection as positive control, and they were incubated for 20 minutes. (4) The probe substrate for CYP2C9 was Diclofenac (2.5 uM) (Sigma), and the selective inhibitor Sulphaphenazole (10 uM) (Sigma) was for parallel detection as positive control, and they were incubated for 20 minutes. (5) The probe substrate for CYP2C19 was Mephenytoin (40 uM) (Sigma), and the selective inhibitor Ticlopidine (10 uM) (Sigma) was for parallel detection as positive control, and they were incubated for 20 minutes. (6) The probe substrate for CYP2D6 was Dextromethorphan (5 uM) (Sigma), and the selective inhibitor Quinidine (10 uM) (Sigma) was for parallel detection as positive control, and they were incubated for 20 minutes. (7) The probe substrates for CYP3A4-T and CYP3A4-M were Testosterone (5 uM) (Sigma) and Midazolam (5 uM) (Sigma), respectively, and the selective inhibitor was Ketoconazole (1 uM) (Sigma), they were detected in parallel as positive control, and incubated for 5 minutes. The reaction system was quenched by adding methanol containing the corresponding internal standard. The internal standard compound was Tolbutamide (Sigma). The concentration of the corresponding metabolites was determined by LC/MS/MS. For the data analysis, the decrease in peak area of the metabolite of the sample after addition of compound 77 relative to the peak area of the metabolite of the solvent control sample was used to calculate the IC50 (concentration of the test substance at 50% inhibition). The percentages of peak areas of metabolites of CYP1A2, CYP2B6, CYP2C8, CYP2C9, 15CYP2C19, CYP2D6, CYP3A4-T, and CYP3A4-M probe substrates after addition of different concentrations of compound 77 and selective inhibitors relative to the solvent control peak areas were shown in the Table 7."}, "[3]": {"molecular_target": "T3, CYP3A4-M (Homo sapiens, UniProt P08684)", "T3 construct": "human liver microsomes (BD Gentest) (0.5 mg/mL); tissue BD Gentest; host or cells: human liver microsomes", "T3 sequence (P08684 whole entry)": "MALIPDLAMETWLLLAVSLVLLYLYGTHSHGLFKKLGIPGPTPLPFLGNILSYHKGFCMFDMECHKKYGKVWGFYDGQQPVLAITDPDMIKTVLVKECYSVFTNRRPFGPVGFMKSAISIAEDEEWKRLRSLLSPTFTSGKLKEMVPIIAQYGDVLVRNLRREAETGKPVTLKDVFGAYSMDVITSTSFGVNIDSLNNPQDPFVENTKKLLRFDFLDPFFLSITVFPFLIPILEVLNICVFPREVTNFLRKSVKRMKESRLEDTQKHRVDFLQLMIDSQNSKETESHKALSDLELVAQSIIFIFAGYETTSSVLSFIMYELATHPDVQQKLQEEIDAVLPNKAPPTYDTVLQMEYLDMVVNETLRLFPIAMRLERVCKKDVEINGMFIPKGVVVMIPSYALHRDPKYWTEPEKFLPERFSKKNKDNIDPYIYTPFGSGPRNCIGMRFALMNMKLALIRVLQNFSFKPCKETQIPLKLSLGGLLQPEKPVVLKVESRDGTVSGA", "test": "P450 enzyme inhibition, CYP3A4-M (Midazolam)", "format": "in vitro ADME", "conditions": "human liver microsomes", "experimental": "as §1, §2"}},
  "data": [
    {"smiles": "COCCOc1ccc2c(c1)ncn2-c1ccc(NC(=O)Nc2cc(C(C)(C)C)n[nH]2)cc1", "note": "[Compound 77, 1-(5-tert-butyl-2H-pyrazol-3-yl)-3-{4-[5-(2-methoxyl-ethoxyl)-benzimidazol-1-yl]-phenyl}-urea]", "values": [
      {"measurement": "Ratio (%)", "setting": "[1]; Concentration 0.3 uM", "result": 94.96, "unit": "%"},
      {"measurement": "Ratio (%)", "setting": "[1]; Concentration 1 uM", "result": 86.71, "unit": "%"},
      {"measurement": "Ratio (%)", "setting": "[1]; Concentration 3 uM", "result": 75.85, "unit": "%"},
      {"measurement": "Ratio (%)", "setting": "[1]; Concentration 10 uM", "result": 53.71, "unit": "%"},
      {"measurement": "Ratio (%)", "setting": "[1]; Concentration 30 uM", "result": 37.47, "unit": "%"},
      {"measurement": "blocking effect on the hERG potassium ion channel", "setting": "[1]; within the range of test concentrations", "result": "a certain blocking effect"},
      {"measurement": "CYP2B6 Remaining %", "setting": "[2]; Concentration 0.25 uM", "result": 106.1, "unit": "%"},
      {"measurement": "CYP2B6 Remaining %", "setting": "[2]; Concentration 0.5 uM", "result": 109.6, "unit": "%"},
      {"measurement": "CYP2B6 Remaining %", "setting": "[2]; Concentration 5 uM", "result": 100.4, "unit": "%"},
      {"measurement": "CYP2B6 Remaining %", "setting": "[2]; Concentration 10 uM", "result": 90.1, "unit": "%"},
      {"measurement": "CYP2B6 Remaining %", "setting": "[2]; Concentration 25 uM", "result": 64.6, "unit": "%"},
      {"measurement": "CYP2B6 Remaining %", "setting": "[2]; Concentration 50 uM", "result": 40.1, "unit": "%"},
      {"measurement": "IC50", "setting": "[2]; read-out: half-inhibitory concentration (IC50) of CYP2B6", "result": 39, "unit": "µM"},
      {"measurement": "CYP3A4M Remaining %", "setting": "[3]; Concentration 0.25 uM", "result": 105.7, "unit": "%"},
      {"measurement": "CYP3A4M Remaining %", "setting": "[3]; Concentration 0.5 uM", "result": 105.7, "unit": "%"},
      {"measurement": "CYP3A4M Remaining %", "setting": "[3]; Concentration 5 uM", "result": 105.0, "unit": "%"},
      {"measurement": "CYP3A4M Remaining %", "setting": "[3]; Concentration 10 uM", "result": 97.3, "unit": "%"},
      {"measurement": "CYP3A4M Remaining %", "setting": "[3]; Concentration 25 uM", "result": 97.2, "unit": "%"},
      {"measurement": "CYP3A4M Remaining %", "setting": "[3]; Concentration 50 uM", "result": 84.0, "unit": "%"},
      {"measurement": "inhibitory effect on CYP3A4-M", "setting": "[3]; Concentration 50 uM", "result": "no significant inhibitory effect"}
    ]}
  ]
}
